{"source": "patent US8513161B2", "about": "“Enhancement of plant growth” (Valent Biosciences Corporation, priority 2007, dated 2013)", "system": "cotton", "assay": "Continuous exposure pouch study, PESA salt and clothianidin on cotton", "type": "in vivo", "settings": "for shoot length of cotton / root length of cotton: in pouch; for shoot length of cotton: control 6.1; for root length of cotton: control 11.4", "description": "Seeds were placed in germination pouches consisting of germination paper hydrated with sterile water that was an insert in a gas-permeable 16×14 cm plastic pouch (CYG Pouch; Mega International, St. Paul, Minn.). In these examples, in pouch solution evaluation, clothianidin and PESA sodium salt were added to the sterile water in the pouch. Alternatively, imidacloprid or dinotefuran and PESA sodium salt were added to the sterile water in the pouch. The pouches were arranged in a completely randomized block design in growth racks and placed in 19-liter polycarbonate food storage containers (Rubbermaid Commercial Products, Winchester, Va.). The sealed containers were held in an upright growth cabinet maintained at 25 C with a 12 hour light: 12 hour dark photoperiod. After 6 days, the containers were removed from the growth cabinet, and the lengths of the roots and shoot were measured.", "note": "Structures can show the parent of a compound that is named as a salt."}
{"smiles": "O=C(O)CCC(=O)NCCc1ccccc1", "note": "[PESA salt]", "values": [{"measurement": "safening of cotton", "setting": "continuous exposure pouch, conclusion from Table 3", "value": "safened cotton against clothianidin-induced root growth inhibition"}, {"measurement": "effect on cotton root length", "setting": "continuous exposure pouch, substance alone", "value": "increased root length in a dose-dependent manner"}, {"measurement": "effect on cotton shoot length", "setting": "continuous exposure pouch, 300 mg/liter PESA salt alone", "value": "reduced"}, {"measurement": "shoot length of cotton", "setting": "PESA salt 10 mg/liter alone", "value": 6.3, "unit": "cm"}, {"measurement": "root length of cotton", "setting": "PESA salt 10 mg/liter alone", "value": 14.2, "unit": "cm"}, {"measurement": "shoot length of cotton", "setting": "PESA salt 30 mg/liter alone", "value": 6.1, "unit": "cm"}, {"measurement": "root length of cotton", "setting": "PESA salt 30 mg/liter alone", "value": 15.3, "unit": "cm"}, {"measurement": "shoot length of cotton", "setting": "PESA salt 100 mg/liter alone", "value": 6.0, "unit": "cm"}, {"measurement": "root length of cotton", "setting": "PESA salt 100 mg/liter alone", "value": 16.2, "unit": "cm"}, {"measurement": "shoot length of cotton", "setting": "PESA salt 300 mg/liter alone", "value": 5.4, "unit": "cm"}]}
